# Publication PMC11796366 (mBio, 2024)
# Target: T1, BumS (WT BumS-Myc-6XHis) (Campylobacter jejuni, UniProt Z9AJU0DEG1)
# T1 construct: gene CJJ81176_1484; second to penultimate codon, C-terminal Myc-6XHis tag kept (pBAD/Myc-HisA, pNR251), expressed in E. coli TOP10; cytoplasmic, N-terminal PAS domain (about residues 1-120)
# T1 sequence (Z9AJU0DEG1 2-403): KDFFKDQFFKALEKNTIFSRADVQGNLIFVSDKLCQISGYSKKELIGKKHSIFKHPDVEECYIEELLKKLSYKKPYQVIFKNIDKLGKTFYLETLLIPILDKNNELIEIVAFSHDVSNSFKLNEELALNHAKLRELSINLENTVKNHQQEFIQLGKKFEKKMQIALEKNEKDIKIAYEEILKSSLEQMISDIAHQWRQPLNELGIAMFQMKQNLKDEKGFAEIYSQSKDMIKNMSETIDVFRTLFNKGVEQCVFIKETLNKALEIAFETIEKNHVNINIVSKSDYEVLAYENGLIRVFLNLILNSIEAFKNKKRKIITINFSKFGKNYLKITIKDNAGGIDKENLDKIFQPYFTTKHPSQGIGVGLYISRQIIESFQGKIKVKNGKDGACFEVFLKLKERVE
# Experiment: CD thermal melt at […] nm
# Format: binding
# Conditions: […]; […] HEPES, […] NaSO4, […] glycerol; […]-95 °C
smiles,measurement,value
CC(C)C(=O)O [isobutyrate],"Tm,app",isobutyrate and isovalerate had a net destabilizing effect on the thermostability of BumS
